Experimental findings from patent US20120082631A1, “COMPOSITIONS” (priority 2009, published 2012) are described below.

The assay in a line: Sensory panel astringency ranking after brushing with toothpaste samples. The format is in vivo. The settings on record: for astringency ratings compared to those of the standard toothpaste base and the current market product: flavour material at 1000 ppm in toothpaste base with 0.75% zinc citrate, statement in words; for Astringency Rating (0-10): mean rating by a panel of three trained experts, 0 = no astringency, 10 = strong astringency, ingredients at 1000 ppm (0.1% w/w) in Standard Toothpaste Base with 0.75% Zinc Citrate, 30 seconds brushing, spit out, one water rinse. How it is done: Differing flavour ingredients were added, at a concentration of 1000 ppm, to a non-flavoured toothpaste base containing 0.75% zinc citrate (ZCT).
Measured samples, of equal weight, of the non-flavoured toothpaste base containing 0.75% ZCT and the same toothpaste base modified with flavour ingredients were then placed on toothbrushes. The samples were tested by a panel of three independent trained experts. The panelists were instructed to brush their teeth for 30 seconds, spit out and rinse once with water. The subjects were then asked to rank the astringency on a scale of 0 to 10 for each sample, 0 representing no astringency and 10 representing strong astringency. A current market product was also tested in the same way.
Table 1 lists the flavour ingredients added to the non-flavoured toothpaste base containing 0.75% zinc citrate, along with the mean astringency rating of each sample. Also included in table 1 is the mean astringency rating of the non-flavoured toothpaste base containing 0.75% ZCT and the current market product.

As to `Cc1occc(=O)c1O` [Maltol, 3-hydroxy-2-methyl-4H-pyran-4-one], the “astringency ratings compared to those of the standard toothpaste base and the current market product” value (“astringency ratings compared to those” below) is “significantly lower astringency ratings”; the “Astringency Rating (0-10)” value came to 3.8.

For `CCc1occc(=O)c1O` [Ethyl Maltol, 2-ethyl-3-hydroxy-4H-pyran-4-one], the “astringency ratings compared to those” value is reported as “significantly lower astringency ratings”; the “Astringency Rating (0-10)” value is 3.5.

Regarding `CC1=C(O)C(=O)CC1` [Cyclotene, 2-hydroxy-3-methyl-2-cyclopenten-1-one], the “astringency ratings compared to those” value is listed as “significantly lower astringency ratings”; the “Astringency Rating (0-10)” value amounted to 4.5.

In the case of `COc1cc(C=O)ccc1O` [Vanillin, reference compound], the “Astringency Rating (0-10)” value is reported as 6.5.
